Measurements as given in ChEMBL document CHEMBL3045395, “Synthesis and reactive oxygen species scavenging activity of halogenated alkaloids from boldine” (Med Chem Res, 2012).

Experiments:
[1] = Antioxidant activity assessed as inhibition of hypoxanthine/xanthine oxidase-mediated ROS generation incubated for 5 min prior to xanthine oxidase addition measured every 4 secs for 100 secs by luminol-enhanced chemiluminescence analysis; assay type: functional
[2] = target: Xanthine dehydrogenase/oxidase (Homo sapiens, UniProt P47989); test: Inhibition of xanthine oxidase (unknown origin) using pterine as substrate assessed as rate of isoxantopterine formation by fluorimetric analysis (reference value: 3.25 +/- 0.25 umol/min)
Xanthine dehydrogenase/oxidase, sequence (P47989 whole entry): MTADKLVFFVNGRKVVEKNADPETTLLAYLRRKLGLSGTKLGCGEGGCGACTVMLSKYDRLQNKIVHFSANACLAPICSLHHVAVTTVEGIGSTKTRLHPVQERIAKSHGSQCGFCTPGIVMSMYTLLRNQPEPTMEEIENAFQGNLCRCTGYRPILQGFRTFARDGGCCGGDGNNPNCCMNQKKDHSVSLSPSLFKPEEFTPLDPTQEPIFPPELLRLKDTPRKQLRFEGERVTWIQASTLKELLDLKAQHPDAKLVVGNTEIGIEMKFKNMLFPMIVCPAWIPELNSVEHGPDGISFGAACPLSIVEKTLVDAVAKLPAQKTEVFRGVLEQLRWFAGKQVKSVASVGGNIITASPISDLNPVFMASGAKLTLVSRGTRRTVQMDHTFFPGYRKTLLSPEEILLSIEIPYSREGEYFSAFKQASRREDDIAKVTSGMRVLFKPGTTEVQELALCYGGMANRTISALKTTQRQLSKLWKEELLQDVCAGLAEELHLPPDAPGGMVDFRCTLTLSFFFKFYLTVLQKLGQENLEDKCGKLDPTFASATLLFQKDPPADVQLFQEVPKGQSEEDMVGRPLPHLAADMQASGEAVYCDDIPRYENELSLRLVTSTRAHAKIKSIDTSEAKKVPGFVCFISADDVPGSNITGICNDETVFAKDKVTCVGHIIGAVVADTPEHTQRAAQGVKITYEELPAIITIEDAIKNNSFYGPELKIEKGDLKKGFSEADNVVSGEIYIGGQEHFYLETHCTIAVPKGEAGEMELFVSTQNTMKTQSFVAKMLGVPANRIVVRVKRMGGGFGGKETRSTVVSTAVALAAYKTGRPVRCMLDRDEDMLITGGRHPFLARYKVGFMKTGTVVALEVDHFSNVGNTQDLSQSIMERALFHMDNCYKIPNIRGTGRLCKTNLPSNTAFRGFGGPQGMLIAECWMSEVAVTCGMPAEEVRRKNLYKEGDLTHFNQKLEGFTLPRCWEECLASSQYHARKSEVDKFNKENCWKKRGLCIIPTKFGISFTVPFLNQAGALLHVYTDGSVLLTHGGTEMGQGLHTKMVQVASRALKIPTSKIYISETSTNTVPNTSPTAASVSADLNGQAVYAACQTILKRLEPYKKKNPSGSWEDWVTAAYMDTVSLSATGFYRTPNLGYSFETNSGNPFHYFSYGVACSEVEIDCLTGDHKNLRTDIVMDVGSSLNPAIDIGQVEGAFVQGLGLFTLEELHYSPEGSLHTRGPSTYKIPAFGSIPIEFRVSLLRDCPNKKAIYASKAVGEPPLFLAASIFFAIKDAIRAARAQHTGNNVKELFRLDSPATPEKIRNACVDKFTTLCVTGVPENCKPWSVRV

[3] = Antioxidant activity in Homo sapiens (human) PMNC assessed as inhibition of fMLP-induced ROS generation at 100 uM incubated for 30 min prior to fMLP-induction measured every 4 secs for 100 secs by luminol-enhanced chemiluminescence analysis; assay type: functional
[4] = (§1) Antioxidant activity in Homo sapiens (human) PMNC assessed as inhibition of fMLP-induced ROS generation incubated for 30 min prior to fMLP-induction measured every 4 secs for 100 secs by luminol-enhanced chemiluminescence analysis; assay type: functional
[5] = organism: Homo sapiens; test: as §1; assay type: functional

IC50 [1] [nM] | Activity [2] [µmol/min] | IC50 [4] [nM] | Compound | inhibition [1] | inhibition at 100 µM [3] [%] | inhibition [5]
3010 | 3.45 | – | COc1cc2ccc3c(CC[N+](C)(C)C)c(Br)c(OC)c(OC)c3c2cc1OC.[I-] | Dose-dependent effect | 62 | –
2110 | 3.6 | 740 | COc1cc2c(ccc3c(CC[N+](C)(C)C)c(Br)c(O)c(OC)c32)cc1O.[I-] | Dose-dependent effect | – | Dose-dependent effect
190 | 3.98 | 780 | COc1cc2c(ccc3c(CCN(C)C)c(Br)c(O)c(OC)c32)cc1O [2-BROMO-N-METHYLSECOBOLDINE] | Dose-dependent effect | – | Dose-dependent effect
2000 | 3.77 | 1270 | COc1cc2c(cc1O)C[C@H]1c3c(c(Br)c(O)c(OC)c3-2)CC[N+]1(C)C.[I-] [3-BROMO-N-METHYLBOLDINE IODIDE] | Dose-dependent effect | – | Dose-dependent effect
– | – | 168000 | O=C1O[C@H]([C@@H](O)CO)C(O)=C1O [ASCORBIC ACID] | – | – | –

Compound | IC50 [1] [nM] | Activity [2] [µmol/min] | IC50 [4] [nM] | inhibition [1] | inhibition at 100 µM [3] [%] | inhibition [5]
CNCCc1c(Br)c(O)c(OC)c2c1ccc1cc(O)c(OC)cc12 [2-BROMOSECOBOLDINE] | 160 | 2.82 | 640 | Dose-dependent effect | – | Dose-dependent effect
COc1cc2c(cc1O)C[C@H]1c3c(c(Br)c(O)c(OC)c3-2)CCN1C [3-BROMOBOLDINE] | 550 | 4.09 | 810 | Dose-dependent effect | – | Dose-dependent effect
